ChEMBL document CHEMBL5518172, “Discovery of hydroxamate as a promising scaffold dually inhibiting metallo- and serine-β-lactamases” (Eur J Med Chem, 2024)
Calls of active or inactive are those of the source. The rule behind the calls is not given here.

Key:
Escherichia coli [1] = test: Antibacterial activity against Escherichia coli harboring serine beta-lactamase OXA-48 infected in Kunming mouse model assessed as reduction in bacterial load in spleen at 20 mg/kg, ip; assay type: functional, organism-based
[2] = Cytotoxicity against mouse L929 cells assessed as cell viability upto 200 uM incubated for 48 hrs by CCK8 assay relative to control; assay type: toxicity, cell-based; details: read-out: Activity
Escherichia coli [3] = test: Synergistic antibacterial activity against Escherichia coli BL21 (DE3) harboring serine beta lactamase OXA-48 assessed as meropenem MIC at 64 microg/ml measured after 16 hrs by CLSI protocol based broth microdilution method (reference value: 1 microg/ml); assay type: functional; details: dose 64 µg/ml
Escherichia coli [4] = test: Synergistic antibacterial activity against Escherichia coli BL21 (DE3) harboring metallo-beta-lactamase IMP-1 assessed as meropenem MIC at 64 microg/ml measured after 16 hrs by CLSI protocol based broth microdilution method (reference value: 64 microg/ml); assay type: functional; details: dose 64 µg/ml
Bacteria [5] = test: Inhibition of recombinant serine beta lactamase KPC-2 (unknown origin) expressed in Escherichia coli BL21 (DE3) cells using meropenem as substrate at 20 uM by spectrometric analysis relative to control
[6] = Inhibition of recombinant serine beta lactamase OXA-48 (unknown origin) expressed in Escherichia coli BL21 (DE3) cells using meropenem as substrate by spectrometric analysis; design: species or system Bacteria
Escherichia coli [7] = test: Synergistic antibacterial activity against Escherichia coli BL21 (DE3) harboring metallo-beta lactamase IMP-1 assessed as fold decrease in meropenem MIC at 64 microg/ml measured after 16 hrs by CLSI protocol based broth microdilution method; assay type: functional; details: dose 64 µg/ml
Escherichia coli [8] = test: Synergistic antibacterial activity against Escherichia coli BL21 (DE3) harboring NDM-1 assessed as fold decrease in meropenem MIC at 64 microg/ml measured after 16 hrs by CLSI protocol based broth microdilution method; assay type: functional; details: dose 64 µg/ml
Escherichia coli [9] = test: Synergistic antibacterial activity against Escherichia coli BL21 (DE3) harboring NDM-1 assessed as decrease in bacterial colony at 128 microg/ml incubated for 12 hrs in presence of meropenem by imaging analysis; assay type: functional, organism-based; details: dose 128.0 µg/ml
Escherichia coli [10] = test: Synergistic antibacterial activity against Escherichia coli BL21 (DE3) harboring serine beta lactamase OXA-48 assessed as decrease in bacterial colony at 128 microg/ml incubated for 12 hrs in presence of meropenem by imaging analysis; assay type: functional, organism-based; details: dose 128.0 µg/ml
Escherichia coli [11] = test: Synergistic antibacterial activity against Escherichia coli BL21 (DE3) harboring serine beta lactamase KPC-2 assessed as meropenem MIC at 64 microg/ml measured after 16 hrs by CLSI protocol based broth microdilution method (reference value: 16 microg/ml); assay type: functional; details: dose 64 µg/ml
Escherichia coli [12] = test: Synergistic antibacterial activity against Escherichia coli BL21 (DE3) harboring serine beta lactamase KPC-2 assessed as decrease in bacterial colony at 128 microg/ml incubated for 12 hrs in presence of meropenem by imaging analysis; assay type: functional, organism-based; details: dose 128.0 µg/ml
Escherichia coli [13] = test: Antibacterial activity against Escherichia coli harboring serine beta-lactamase OXA-48 infected in Kunming mouse model assessed as reduction in bacterial load in liver at 20 mg/kg, ip; assay type: functional, organism-based
[14] = Inhibition of recombinant serine beta lactamase KPC-2 (unknown origin) expressed in Escherichia coli BL21 (DE3) cells using meropenem as substrate by spectrometric analysis; design: species or system Bacteria
Bacteria [15] = test: Inhibition of recombinant serine beta lactamase OXA-48 (unknown origin) expressed in Escherichia coli BL21 (DE3) cells using meropenem as substrate at 20 uM by spectrometric analysis relative to control
Escherichia coli [16] = test: Synergistic antibacterial activity against Escherichia coli clinical isolate 10 assessed as decrease in bacterial colony at 128 microg/ml incubated for 12 hrs in presence of meropenem by imaging analysis; assay type: functional, organism-based; details: dose 128.0 µg/ml
Escherichia coli [17] = test: Synergistic antibacterial activity against Escherichia coli BL21 (DE3) harboring NDM-1 assessed as meropenem MIC at 64 microg/ml measured after 16 hrs by CLSI protocol based broth microdilution method (reference value: 256 microg/ml); assay type: functional; details: dose 64 µg/ml
[18] = biological target: Metallo-beta-lactamase type 2 (Bacteria, UniProt C7C422); test: Inhibition of recombinant NDM-1 (unknown origin) expressed in Escherichia coli BL21 (DE3) cells using meropenem as substrate by spectrometric analysis
Metallo-beta-lactamase type 2, sequence (C7C422 whole entry): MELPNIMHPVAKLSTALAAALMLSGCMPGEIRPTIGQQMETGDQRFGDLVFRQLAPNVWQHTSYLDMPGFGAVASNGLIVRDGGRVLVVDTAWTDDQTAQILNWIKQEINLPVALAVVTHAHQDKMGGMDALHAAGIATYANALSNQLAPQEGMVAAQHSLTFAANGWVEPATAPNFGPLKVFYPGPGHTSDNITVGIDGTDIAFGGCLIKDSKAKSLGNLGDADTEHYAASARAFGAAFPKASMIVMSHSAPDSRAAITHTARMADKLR

Escherichia coli [19] = test: Synergistic antibacterial activity against Escherichia coli BL21 (DE3) harboring metallo-beta-lactamase IMP-1 assessed as decrease in bacterial colony at 128 microg/ml incubated for 12 hrs in presence of meropenem by imaging analysis; assay type: functional, organism-based; details: dose 128.0 µg/ml
[20] = Inhibition of recombinant metallo-beta-lactamase IMP-1 (unknown origin) expressed in Escherichia coli BL21 (DE3) cells using meropenem as substrate by spectrometric analysis; design: species or system Bacteria
Escherichia coli [21] = test: Synergistic antibacterial activity against Escherichia coli harboring serine beta-lactamase OXA-48 infected in Kunming mouse model assessed as reduction in bacterial load in liver at 20 mg/kg, ip co-administered with 1 mg/kg of meropenem; assay type: functional, organism-based
Escherichia coli [22] = test: Synergistic antibacterial activity against Escherichia coli BL21 (DE3) harboring serine beta lactamase OXA-48 assessed as fold decrease in meropenem MIC at 64 microg/ml measured after 16 hrs by CLSI protocol based broth microdilution method; assay type: functional; details: dose 64 µg/ml

CC(C)COC(=O)ONC(=O)CCC1CCCCC1
Activity (Escherichia coli [1]): inactive | viability at 48 h, up to 200 µM [2]: > 80% | MIC (Escherichia coli [3]): 0.063 mg/L | MIC (Escherichia coli [4]): 32 mg/L | inhibition (Bacteria [5]): > 90% | IC50 [6]: 2.05 µM | fold change (FC) (Escherichia coli [7]): 2 | fold change (FC) (Escherichia coli [8]): 2 | Activity (Escherichia coli [9]): Active | Activity (Escherichia coli [10]): Active | MIC (Escherichia coli [11]): 16 mg/L | Activity (Escherichia coli [12]): Active | Activity (Escherichia coli [13]): inactive | IC50 [14]: 0.69 µM | inhibition (Bacteria [15]): > 90% | Activity (Escherichia coli [16]): Active | MIC (Escherichia coli [17]): 64 mg/L | IC50 [18]: 4.73 µM | Activity (Escherichia coli [19]): Active | IC50 [20]: 4.49 µM | Activity (Escherichia coli [21]): Active | fold change (FC) (Escherichia coli [22]): 16
